# Test results published in PMC5834492, “Antimycobacterial drug discovery using Mycobacteria-infected amoebae identifies anti-infectives and new molecular targets” (Scientific Reports, 2018).
# What was measured:
# M. marinum luxCDABE = format: cell-based, Mycobacterium marinum
# Mtb H37Rv = test system: Mtb H37Rv; parameters: method as in Sorrentino et al, 2015; details: ref Sorrentino et al, 2015; cited from earlier work
# [1] = test system: M. marinum in A. castellanii; format: cell-based, Mycobacterium marinum
# Mtb H37Rv in THP-1 = test system: Mtb H37Rv in THP-1; parameters: method as in Sorrentino et al, 2015; details: ref Sorrentino et al, 2015, cited from earlier work; for Intracelullar MIC90 in THP-1: THP1 / Mtb H37Rv infection assay; for Extracellular MIC90/ Inracellular MIC90: ratio
# [2] = test system: M. marinum in BV2 microglial cells; format: cell-based, Mycobacterium marinum
smiles,measurement,setting,value
Cc1cc(NCCc2ccccc2)nc(/N=C(\N)Nc2ccc(Cl)cc2)n1 [CCI7967],Antibiotic assays: M. marinum luxCDABE,M. marinum luxCDABE,0.00
same,Growth inhibition / Cytotoxicity assays: D. discoideum GFP-ABD,D. discoideum GFP-ABD,0.89
same,Extracellular MIC90,Mtb H37Rv,2.4 µM
same,Growth inhibition / Cytotoxicity assays: BV2 cells,BV2 cells,False
same,Intracellular infection assays: A. castellanii / M. marinum,[1],1.16
same,Intracelullar MIC90 in THP-1,Mtb H37Rv in THP-1,0.61 µM
same,Extracellular MIC90/ Inracellular MIC90,Mtb H37Rv in THP-1,3.93
same,Intracellular infection assays: BV2 / M. marinum,[2],1.01
Cc1cc(OCC(=O)NCc2ccccc2)c2cc(Br)ccc2n1 [GSK124576A],Antibiotic assays: M. marinum luxCDABE,M. marinum luxCDABE,0.00
same,Growth inhibition / Cytotoxicity assays: D. discoideum GFP-ABD,D. discoideum GFP-ABD,0.91
same,Extracellular MIC90,Mtb H37Rv,2.3 µM
same,Growth inhibition / Cytotoxicity assays: BV2 cells,BV2 cells,False
same,Intracellular infection assays: A. castellanii / M. marinum,[1],1.13
same,Intracelullar MIC90 in THP-1,Mtb H37Rv in THP-1,5.55 µM
same,Extracellular MIC90/ Inracellular MIC90,Mtb H37Rv in THP-1,0.41
same,Intracellular infection assays: BV2 / M. marinum,[2],1.05
O=C(Nc1nnc(-c2ccc(Cl)cc2)o1)c1cccc(C(F)(F)F)c1 [GSK130506A],Antibiotic assays: M. marinum luxCDABE,M. marinum luxCDABE,0.00
same,Growth inhibition / Cytotoxicity assays: D. discoideum GFP-ABD,D. discoideum GFP-ABD,1.07
same,Extracellular MIC90,Mtb H37Rv,5.6 µM
same,Growth inhibition / Cytotoxicity assays: BV2 cells,BV2 cells,False
same,Intracellular infection assays: A. castellanii / M. marinum,[1],1.05
same,Intracelullar MIC90 in THP-1,Mtb H37Rv in THP-1,16.65 µM
same,Extracellular MIC90/ Inracellular MIC90,Mtb H37Rv in THP-1,0.34
same,Intracellular infection assays: BV2 / M. marinum,[2],1.46
Cc1cccc(-c2nc(Nc3ccncn3)c3c(C)csc3n2)n1 [GSK163574A],Antibiotic assays: M. marinum luxCDABE,M. marinum luxCDABE,0.00
same,Growth inhibition / Cytotoxicity assays: D. discoideum GFP-ABD,D. discoideum GFP-ABD,0.81
same,Extracellular MIC90,Mtb H37Rv,0.3 µM
same,Growth inhibition / Cytotoxicity assays: BV2 cells,BV2 cells,False
same,Intracellular infection assays: A. castellanii / M. marinum,[1],1.13
same,Intracelullar MIC90 in THP-1,Mtb H37Rv in THP-1,50 µM
same,Extracellular MIC90/ Inracellular MIC90,Mtb H37Rv in THP-1,0.01
same,Intracellular infection assays: BV2 / M. marinum,[2],1.25
O=C(Nc1nnc(-c2ccc(Cl)s2)o1)c1ccc(Cl)s1 [GSK316438A],Antibiotic assays: M. marinum luxCDABE,M. marinum luxCDABE,0.09
same,Growth inhibition / Cytotoxicity assays: D. discoideum GFP-ABD,D. discoideum GFP-ABD,0.70
same,Growth inhibition / Cytotoxicity assays: BV2 cells,BV2 cells,False
same,Intracellular infection assays: A. castellanii / M. marinum,[1],1.32
same,Intracelullar MIC90 in THP-1,Mtb H37Rv in THP-1,>50 µM
same,Intracellular infection assays: BV2 / M. marinum,[2],1.30
CCOc1ccc(OCc2ccc(C(=O)NNC(=O)c3ccc([N+](=O)[O-])o3)cc2)cc1 [GSK426032A],Antibiotic assays: M. marinum luxCDABE,M. marinum luxCDABE,0.00
same,Growth inhibition / Cytotoxicity assays: D. discoideum GFP-ABD,D. discoideum GFP-ABD,1.02
same,Growth inhibition / Cytotoxicity assays: BV2 cells,BV2 cells,False
same,Intracellular infection assays: A. castellanii / M. marinum,[1],0.94
same,Intracelullar MIC90 in THP-1,Mtb H37Rv in THP-1,>50 µM
same,Intracellular infection assays: BV2 / M. marinum,[2],1.27
c1ccc(Cc2nnc(Sc3ccnc(N4CCN(c5ccncc5)CC4)n3)n2CCN2CCOCC2)cc1 [GSK547511A],Antibiotic assays: M. marinum luxCDABE,M. marinum luxCDABE,0.13
same,Growth inhibition / Cytotoxicity assays: D. discoideum GFP-ABD,D. discoideum GFP-ABD,1.02
same,Growth inhibition / Cytotoxicity assays: BV2 cells,BV2 cells,False
same,Intracellular infection assays: A. castellanii / M. marinum,[1],0.94
same,Intracelullar MIC90 in THP-1,Mtb H37Rv in THP-1,>50 µM
same,Intracellular infection assays: BV2 / M. marinum,[2],1.36
CCC(Sc1nc2ccccc2o1)C(=O)Nc1nccs1 (stereo not drawn) [GSK829969A],Antibiotic assays: M. marinum luxCDABE,M. marinum luxCDABE,0.00
same,Growth inhibition / Cytotoxicity assays: D. discoideum GFP-ABD,D. discoideum GFP-ABD,0.94
same,Growth inhibition / Cytotoxicity assays: BV2 cells,BV2 cells,True
same,Intracellular infection assays: A. castellanii / M. marinum,[1],1.58
same,Intracellular infection assays: BV2 / M. marinum,[2],1.56
CN(C)S(=O)(=O)c1ccc(C(=O)Nc2nnc(-c3ccc(Cl)s3)o2)cc1 [GSK991960A],Antibiotic assays: M. marinum luxCDABE,M. marinum luxCDABE,0.15
same,Growth inhibition / Cytotoxicity assays: D. discoideum GFP-ABD,D. discoideum GFP-ABD,0.90
same,Growth inhibition / Cytotoxicity assays: BV2 cells,BV2 cells,False
same,Intracellular infection assays: A. castellanii / M. marinum,[1],1.06
same,Intracellular infection assays: BV2 / M. marinum,[2],1.20
O=C(NC1=NCCS1)c1sc2cc(F)ccc2c1Cl [GSK1107112A],Antibiotic assays: M. marinum luxCDABE,M. marinum luxCDABE,0.10
same,Growth inhibition / Cytotoxicity assays: D. discoideum GFP-ABD,D. discoideum GFP-ABD,0.0367
same,Growth inhibition / Cytotoxicity assays: BV2 cells,BV2 cells,False
same,Intracellular infection assays: A. castellanii / M. marinum,[1],0.90
same,Intracellular infection assays: BV2 / M. marinum,[2],1.29
O=C(c1cnn(C(=O)c2ccco2)c1)c1cc(F)ccc1O [GSK1310678A],Antibiotic assays: M. marinum luxCDABE,M. marinum luxCDABE,0.00
same,Growth inhibition / Cytotoxicity assays: D. discoideum GFP-ABD,D. discoideum GFP-ABD,1.12
same,Growth inhibition / Cytotoxicity assays: BV2 cells,BV2 cells,False
same,Intracellular infection assays: A. castellanii / M. marinum,[1],0.98
same,Intracellular infection assays: BV2 / M. marinum,[2],1.17
NC(=O)c1cc(-c2ccsc2)ccc1OCCOc1ccccc1 [GSK1365028A],Antibiotic assays: M. marinum luxCDABE,M. marinum luxCDABE,0.00
same,Growth inhibition / Cytotoxicity assays: D. discoideum GFP-ABD,D. discoideum GFP-ABD,0.94
same,Growth inhibition / Cytotoxicity assays: BV2 cells,BV2 cells,False
same,Intracellular infection assays: A. castellanii / M. marinum,[1],1.14
same,Intracelullar MIC90 in THP-1,Mtb H37Rv in THP-1,>50 µM
same,Intracellular infection assays: BV2 / M. marinum,[2],1.42
O=C(Cc1ccc(F)cc1)Nc1nc(-c2ccccn2)cs1 [GSK1570606A],Antibiotic assays: M. marinum luxCDABE,M. marinum luxCDABE,0.00
same,Growth inhibition / Cytotoxicity assays: D. discoideum GFP-ABD,D. discoideum GFP-ABD,0.06
same,Growth inhibition / Cytotoxicity assays: BV2 cells,BV2 cells,False
same,Intracellular infection assays: A. castellanii / M. marinum,[1],1.21
same,Intracelullar MIC90 in THP-1,Mtb H37Rv in THP-1,>50 µM
same,Intracellular infection assays: BV2 / M. marinum,[2],1.05
CCc1c(C)nc(-n2nc(C)cc2NC(=O)c2ccccc2SC)[nH]c1=O [GSK1783710A],Antibiotic assays: M. marinum luxCDABE,M. marinum luxCDABE,0.67
same,Growth inhibition / Cytotoxicity assays: D. discoideum GFP-ABD,D. discoideum GFP-ABD,0.94
same,Growth inhibition / Cytotoxicity assays: BV2 cells,BV2 cells,False
same,Intracellular infection assays: A. castellanii / M. marinum,[1],1.00
same,Intracelullar MIC90 in THP-1,Mtb H37Rv in THP-1,>50 µM
same,Intracellular infection assays: BV2 / M. marinum,[2],1.11
O=C(OCc1c(F)cccc1Cl)c1ccc(-n2ncc(Cl)c(Cl)c2=O)cc1 [GSK1826825A],Antibiotic assays: M. marinum luxCDABE,M. marinum luxCDABE,0.13
same,Growth inhibition / Cytotoxicity assays: D. discoideum GFP-ABD,D. discoideum GFP-ABD,1.04
same,Growth inhibition / Cytotoxicity assays: BV2 cells,BV2 cells,False
same,Intracellular infection assays: A. castellanii / M. marinum,[1],0.95
same,Intracellular infection assays: BV2 / M. marinum,[2],1.71
O=C(CCCSc1ccccc1)NNC(=O)c1cccs1 [GSK2157753A],Antibiotic assays: M. marinum luxCDABE,M. marinum luxCDABE,0.11
same,Growth inhibition / Cytotoxicity assays: D. discoideum GFP-ABD,D. discoideum GFP-ABD,1.04
same,Growth inhibition / Cytotoxicity assays: BV2 cells,BV2 cells,False
same,Intracellular infection assays: A. castellanii / M. marinum,[1],1.00
same,Intracelullar MIC90 in THP-1,Mtb H37Rv in THP-1,>50 µM
same,Intracellular infection assays: BV2 / M. marinum,[2],1.67
